Measured values reported in patent publication US20250345292A1, “COMBINATION OF ALBUTEROL AND BUDESONIDE FOR THE TREATMENT OF ASTHMA” (priority 2022, published 2025).

What was measured:
[1] = tested on: patients with mild-to-moderate asthma; assay: Phase 3 clinical trial, albuterol-budesonide combination vs. mono-components, four times daily for 12 weeks; assay type: in vivo, human; conditions: for Change from baseline in FEV1 AUC0-6 over 12 weeks, LSM / Change from baseline in trough FEV1 over 12 weeks, LSM: four times daily
Experimental: A Phase 3 clinical study evaluated contributions of the mono-components albuterol and budesonide to albuterol/budesonide combination efficacy in patients with mild-to-moderate asthma ≥4 years. Patients≥12 years were randomized 1:1:1:1:1 to four-times-daily albuterol/budesonide 180/160 or 180/80 μg, albuterol 180 μg, budesonide 160 μg or placebo for 12 weeks; patients 4-11 years were not included in this analysis set.
In the study, 1001 patients with mild-to-moderate asthma were randomized 1:1:1:1:1 to ABD 180/160 μg or 180/80 μg, albuterol (A) 180 μg, budesonide (B) 160 μg, or placebo, all four times daily (QID), for 12 weeks. […] Secondary endpoints included time to onset, as measured by 15% improvement in FEV1 within 30 minutes on Day 1, and duration of effect, and Asthma Control Questionnaire-7 (ACQ-7) responder (≥0.5-point reduction from baseline) analysis at Week 12.

[2] = tested on: patients with uncontrolled moderate-to-severe asthma; conditions: human, in vivo, 180 μg
Experimental: (§1) Safety endpoints (adverse events [AEs] and serious adverse events [SAEs]) were assessed from date of informed consent/assent through the safety follow-up.
(§2) All randomized patients who received any amount of study drug, classified by the study medication they were randomized to, were included in the efficacy analyses comparing albuterol-budesonide 180/80-μg with albuterol. […] All patients receiving any amount of randomized study medication, and classified by the study medication they actually received, were included for all safety analyses.

[3] = tested on: patients with uncontrolled moderate-to-severe asthma; assay: Phase 3 clinical trial, as-needed albuterol-budesonide fixed dose combination vs. albuterol alone: efficacy and study medication use; assay type: in vivo, human; conditions: for % of patients with a severe exacerbation / number of patients with a severe exacerbation: as-needed use
[4] = tested on: patients with uncontrolled moderate-to-severe asthma; assay: Phase 3 clinical trial, albuterol-budesonide FDC vs. albuterol alone: safety endpoints (adverse events)
Experimental: as §1, §2

[5] = vs placebo, full analysis set ≥12 years
[6] = comparison 180/80-μg versus albuterol, all patients
[7] = comparison 180/160-μg versus albuterol, excludes children
[8] = comparison albuterol-budesonide 180/80-μg versus albuterol, all patients
[9] = comparison albuterol-budesonide 180/160-μg versus albuterol, excludes children (albuterol n=1,014)
[10] = AE in ≥2% of patients in any group
[11] = treatment-related, investigator-assessed AE

CCCC1O[C@@H]2C[C@H]3[C@@H]4CCC5=CC(=O)C=C[C@]5(C)[C@H]4[C@@H](O)C[C@]3(C)[C@]2(C(=O)CO)O1 (mixture of isomers) [budesonide 160 μg, (RS)-11β,21-dihydroxy-16α,17α-(butylidenebis(oxy)) pregna-1,4-diene-3,20-dione]
Change from baseline in FEV1 AUC0-6 over 12 weeks, LSM ([1]; full analysis set ≥12 years): 178.0 mL
Change from baseline in trough FEV1 over 12 weeks, LSM ([1]; full analysis set ≥12 years): 108.9 vs mL
Change from baseline in trough FEV1 over 12 weeks, difference in LSM [1, 5]: 73.3 mL

CC(C)(C)NCC(O)c1ccc(O)c(CO)c1 (stereo not shown) [albuterol 180-μg, 4-(2-(tert-butylamino)-1-hydroxyethyl)-2-(hydroxymethyl) phenol]
responders (onset of effect) ([1]; Day 1, 15% improvement in FEV1 within 30 minutes): 42.9%
Median time to onset ([1]; Day 1, 15% improvement in FEV1 within 30 minutes, responders): 9.5 min
Median duration of effect ([1]; Day 1, responders): 168.2 min
percentages of ACQ-7 responders ([1]; Week 12, ≥0.5-point reduction from baseline): 47.2%
bronchodilation with repeated use over 1-4 weeks ([1]; compared with placebo): no difference
Change from baseline in FEV1 AUC0-6 over 12 weeks, LSM ([1]; full analysis set ≥12 years): 157.2 vs mL
Change from baseline in trough FEV1 over 12 weeks, LSM ([1]; full analysis set ≥12 years): 2.7 mL
Change from baseline in FEV1 AUC0-6 over 12 weeks, difference in LSM [1, 5]: 60.5 mL
frequency of SAEs, including deaths [2]: 4.5%
Annualized severe exacerbation rate [3, 6]: 0.61
Annualized total systemic glucocorticoid exposure (prednisone equivalents), median [3, 6]: 0.0 mg/year
Annualized severe exacerbation rate [3, 7]: 0.59
Annualized total systemic glucocorticoid exposure (prednisone equivalents), median [3, 7]: 0.0 mg/year
% of patients with a severe exacerbation [3, 8]: 26.1%
number of patients with a severe exacerbation [3, 8]: 276
% of patients with a severe exacerbation [3, 9]: 26.2%
number of patients with a severe exacerbation [3, 9]: 266
severe exacerbations requiring ED or urgent care visits (number) ([3]; per treatment arm): 66
severe exacerbations requiring hospitalization (number) ([3]; per treatment arm): 17
Asthma, % [4, 10]: 3.3%
Back pain, % [4, 10]: 1.9%
Bronchitis, % [4, 10]: 2.6%
COVID-19, % [4, 10]: 4.4%
Headache, % [4, 10]: 4.7%
Hypertension, % [4, 10]: 2.5%
Influenza, % [4, 10]: 1.3%
Nasopharyngitis, % [4, 10]: 5.1%
Sinusitis, % [4, 10]: 2.3%
Upper respiratory tract infection, % [4, 10]: 2.5%
Patients with any AE, % ([4]; Table 1): 46.4%
frequency of AEs leading to discontinuation of treatment ([4]; human, in vivo): 0.9%
frequency of inhaled glucocorticoid-associated adverse events ([4]; human, in vivo): 1.3%
deaths (number) ([4]; no deaths considered treatment-related): 1
frequency of any AE ([4]; randomized treatment groups): 46.4%
dysphonia [4, 11]: 0.4%
oral candidiasis [4, 11]: 0.5%
oropharyngeal candidiasis [4, 11]: 0.1%
